In brackets after ≈: the same amount, converted by molar mass. Where a name gives a salt, the structure may show the parent alone. Read-outs that look alike come from different tables or passages of the source.
Columns and labels:
[1] = test system: E. coli; assay: Gram negative MIC protocol (OD600, LB, 24 h); conditions: Escherichia coli
Protocol: (§1) Overnight bacterial cultures were grown in LB with no added antibiotics at 37° C. with shaking. A 1:1000 dilution of these cultures into LB was exposed to concentration gradients of compounds in 96-well plates (100 μL per well assay volume). Resulting plates were incubated at 37° C. for 24 h without shaking, and OD600 was measured at the end of the incubation. MICs were determined as the lowest concentrations at which OD600 remained at baseline.

[2] = test system: A. baumannii; assay: Gram negative MIC protocol (OD600, LB, 24 h); conditions: Acinetobacter baumannii
Protocol: as §1

[3] = test system: H37RvMA; assay: Tuberculosis Alamar Blue/Resazurin assay (MIC); assay type: cell-based; conditions: Mycobacterium tuberculosis, H37RV, read-out: WT H37Rv MTB Activity
[4] = read-out: MIC E. coli delta-TolC LB Media, E. coli delta-TolC strain, LB media, 24 h, OD600
[5] = read-out: MIC WT E. coli LB Media, wild-type E. coli, LB media, 24 h, OD600
[6] = read-out: MIC A. baumannii LB Media, A. baumannii, LB media, 24 h, OD600

| SMILES | MIC [1, 4] | MIC [1, 5] | MIC [2, 6] | MIC ([3]; WT H37Rv MTB) | MIC ([2]; read-out: MIC A. baumannii LB Media) | MIC [3] |
| --- | --- | --- | --- | --- | --- | --- |
| CC(CC1CCCCC1)NCc1ccccc1OCC(=O)NC(=O)NC(C)(C)C (stereo not shown) [B325] | 4 µM (≈ 1.61 µg/mL) | > 150 µM | 150 µM (≈ 60.5 µg/mL) | 91 µM (≈ 36.7 µg/mL) |  |  |
| CC(CC1CCCCC1)NCc1ccccc1OC1CC2CCC1(C)C2(C)C (stereo not shown) [B326] | 12 µM (≈ 4.6 µg/mL) | > 150 µM | > 150 µM | 55 µM (≈ 21.1 µg/mL) |  |  |
| COC(=O)C(C)Oc1ccccc1CNC(C)CC1CCCCC1 (stereo not shown) [B327] | 7 µM (≈ 2.33 µg/mL) | > 150 µM | > 150 µM | > 150 µM |  |  |
| c1ccc(OCC2CCCCO2)c(CNCCC2CCCCC2)c1 (stereo not shown) [B328, 2-cyclohexyl-N-(2-((tetrahydro-2H-pyran-2-yl)methoxy)benzyl)ethanamine hydrochloride] | 55 µM | > 150 µM | > 150 µM | 150 µM |  |  |
| c1ccc(OCC2CCCO2)c(CNCCC2CCCCC2)c1 (stereo not shown) [B329, 2-cyclohexyl-N-(2-((tetrahydrofuran-2-yl)methoxy)benzyl)ethanamine] | 33 µM (≈ 10.5 µg/mL) | > 150 µM | > 150 µM | > 150 µM |  |  |
| c1ccc(OCC2CCOC2)c(CNCCC2CCCCC2)c1 (stereo not shown) [B330, 2-cyclohexyl-N-(2-((tetrahydrofuran-3-yl)methoxy)benzyl)ethanamine] | 33 µM (≈ 10.5 µg/mL) | > 150 µM | > 150 µM | > 150 µM |  |  |
| c1ccc(OCC2CCOCC2)c(CNCCC2CCCCC2)c1 [B331, 2-cyclohexyl-N-(2-((tetrahydro-2H-pyran-4-yl)methoxy)benzyl)ethanamine] | 33 µM (≈ 10.9 µg/mL) | > 150 µM | > 150 µM | > 150 µM |  |  |
| CC(CC1CCCCC1)NCc1ccccc1OCC(=O)N1CC(C)OC(C)C1 (stereo not shown) [B333] | 7 µM (≈ 2.82 µg/mL) | > 150 µM | > 150 µM | > 150 µM |  |  |
| Cc1nc(COc2ccccc2CNC(C)CC2CCCCC2)no1 (stereo not shown) [B334] | 7 µM (≈ 2.4 µg/mL) | > 150 µM | > 150 µM | > 150 µM |  |  |
| CC(CC1CCCCC1)NCc1ccccc1OCC(=O)NC(N)=O (stereo not shown) [B335] | 4 µM (≈ 1.39 µg/mL) | 55 µM (≈ 19.1 µg/mL) | 150 µM (≈ 52.1 µg/mL) | > 150 µM |  |  |
| CC(CC1CCCCC1)NCc1ccccc1OCC(=O)NCC1CCCO1 (stereo not shown) [B336] | 33 µM (≈ 12.8 µg/mL) | > 150 µM | > 150 µM | > 150 µM |  |  |
| CC(CC1CCCCC1)NCc1ccccc1OCCO (stereo not shown) [B337] | 4 µM (≈ 1.17 µg/mL) | 55 µM (≈ 16 µg/mL) | 150 µM (≈ 43.7 µg/mL) | > 150 µM |  |  |
| CC(CC1CCCCC1)NCc1ccccc1OCC(N)=O (stereo not shown) [B338] | 12 µM (≈ 3.65 µg/mL) | 91 µM (≈ 27.7 µg/mL) | > 150 µM | > 150 µM |  |  |
| OB1OCc2cccc(CNCCC3CCCCC3)c21 [B339] | 200 µM (≈ 54.6 µg/mL) | > 300 µM | > 300 µM | > 150 µM |  |  |
| OB(O)c1ccccc1CNCCC1CCCCC1 [B340, 2-((2-cyclohexylethylamino)methyl)phenylboronic acid] | 55 µM (≈ 14.4 µg/mL) | > 150 µM | > 150 µM | > 150 µM |  |  |
| C[Si](C)(C)c1ccccc1CNCCC1CCCCC1 [B341, 2-cyclohexyl-N-(2-(trimethylsilyl)-benzyl)ethanamine hydrochloride] | 7 µM | > 150 µM |  |  | > 150 µM | 150 µM |
| CC(CC1CCCCC1)NCc1ccccc1OCC(O)C(C)C (stereo not shown) [B342] | 4 µM (≈ 1.33 µg/mL) | 150 µM (≈ 50 µg/mL) | 150 µM (≈ 50 µg/mL) | 91 µM (≈ 30.3 µg/mL) |  |  |
| CC(CC1CCCCC1)NCc1ccccc1OCC(C)(C)O (stereo not shown) [B343] | 4 µM (≈ 1.28 µg/mL) | 150 µM (≈ 47.9 µg/mL) | 150 µM (≈ 47.9 µg/mL) | > 150 µM |  |  |
| CC(CC1CCCCC1)NCc1ccccc1OCCCN(C)C1CCCC1 (stereo not shown) [B344] | 91 µM (≈ 35.2 µg/mL) | 150 µM (≈ 58 µg/mL) | 91 µM (≈ 35.2 µg/mL) | 150 µM (≈ 58 µg/mL) |  |  |
| NS(=O)(=O)c1ccccc1CNCCC1CCCCC1 [B345] | 20 µM (≈ 5.93 µg/mL) | > 150 µM | 33 µM (≈ 9.78 µg/mL) | > 150 µM |  |  |
| CS(=O)(=O)Cc1ccccc1CNCCC1CCCCC1 [B346] | 4 µM (≈ 1.24 µg/mL) | > 150 µM | 12 µM (≈ 3.71 µg/mL) | > 150 µM |  |  |
| CC(CC1CCCCC1)NCc1ccccc1OCC(=O)N1CCNC1=O (stereo not shown) [B347] | 4 µM (≈ 1.49 µg/mL) | 150 µM (≈ 56 µg/mL) | > 150 µM | > 150 µM |  |  |

| SMILES | MIC [1, 4] | MIC [1, 5] | MIC [2, 6] | MIC ([3]; WT H37Rv MTB) | MIC ([2]; read-out: MIC A. baumannii LB Media) | MIC [3] |
| --- | --- | --- | --- | --- | --- | --- |
| Ic1cccc(CNCCC2CCCCC2)c1 [B348] | > 150 µM | > 150 µM | > 150 µM | 150 µM (≈ 51.5 µg/mL) |  |  |
| COC(=O)c1cccc(CNCCC2CCCCC2)c1 [B349] | > 150 µM | > 150 µM | > 150 µM | > 150 µM |  |  |
| COCc1cccc(CNCCC2CCCCC2)c1 [B350] | > 150 µM | > 150 µM | > 150 µM | > 150 µM |  |  |
| Clc1cccc(CNCCC2CCCCC2)c1 [B351] | > 150 µM | > 150 µM | > 150 µM | > 150 µM |  |  |
| c1cc(CNCCC2CCCCC2)c2[nH]ccc2c1 [B352] | 91 µM (≈ 23.3 µg/mL) | 91 µM (≈ 23.3 µg/mL) | 150 µM (≈ 38.5 µg/mL) | 91 µM (≈ 23.3 µg/mL) |  |  |
| COc1cccc(CNCCC2CCCCC2)c1 [B353] | > 150 µM | > 150 µM | > 150 µM | > 150 µM |  |  |
| c1cc(CNCCC2CCCCC2)c2sccc2c1 [B354] | 150 µM (≈ 41 µg/mL) | > 150 µM | > 150 µM | 150 µM (≈ 41 µg/mL) |  |  |
| NCc1cccc(CNCCC2CCCCC2)c1 [B355] | > 150 µM | > 150 µM | > 150 µM | > 150 µM |  |  |
| Oc1cccc(CNCCC2CCCCC2)c1 [B356] | > 150 µM | > 150 µM | > 150 µM | > 150 µM |  |  |
| c1cc(CNCCC2CCCCC2)c2cc[nH]c2c1 [B357] | 20 µM (≈ 5.13 µg/mL) | 150 µM (≈ 38.5 µg/mL) | 91 µM (≈ 23.3 µg/mL) | 91 µM (≈ 23.3 µg/mL) |  |  |
| CC(C)NC(=O)COc1ccccc1CNC(C)CC1CCCCC1 (stereo not shown) [B358] | 20 µM (≈ 6.93 µg/mL) | > 150 µM | > 150 µM | > 150 µM |  |  |
| C#CCNC(=O)COc1ccccc1CNC(C)CC1CCCCC1 (stereo not shown) [B359] | 12 µM (≈ 4.11 µg/mL) | > 150 µM | 150 µM (≈ 51.4 µg/mL) | > 150 µM |  |  |
| c1ccc(CNCCC2CCCCN2)cc1 (stereo not shown) [B360] | > 150 µM | > 150 µM | > 150 µM | > 150 µM |  |  |
| CC(O)COc1ccccc1CNC(C)CC1CCCCC1 (stereo not shown) [B361] | 4 µM (≈ 1.22 µg/mL) | 91 µM (≈ 27.8 µg/mL) | 91 µM (≈ 27.8 µg/mL) | > 150 µM |  |  |
| COC(=O)COc1ccccc1CNC(C)CC1CCCCC1 (stereo not shown) [B362] | 7 µM (≈ 2.24 µg/mL) | 150 µM (≈ 47.9 µg/mL) | 150 µM (≈ 47.9 µg/mL) | > 150 µM |  |  |
| CC(O)CCOc1ccccc1CNC(C)CC1CCCCC1 (stereo not shown) [B363] | 3 µM (≈ 0.958 µg/mL) | 150 µM (≈ 47.9 µg/mL) | 150 µM (≈ 47.9 µg/mL) | > 150 µM |  |  |
| CSCCCOc1ccccc1CNC(C)CC1CCCCC1 (stereo not shown) [B364] | 3 µM (≈ 1.01 µg/mL) | 150 µM (≈ 50.3 µg/mL) | 150 µM (≈ 50.3 µg/mL) | 91 µM (≈ 30.5 µg/mL) |  |  |
| CCOC(=O)COCCOc1ccccc1CNC(C)CC1CCCCC1 (stereo not shown) [B365] | 5 µM (≈ 1.89 µg/mL) | > 150 µM | > 150 µM | > 150 µM |  |  |
| Nc1cccc(CNCCC2CCCCC2)c1 [B366] | 150 µM (≈ 34.9 µg/mL) | 150 µM (≈ 34.9 µg/mL) | > 150 µM | > 150 µM |  |  |
| CC(CC1CCCCC1)NCc1ccccc1OCC1CN(C2CC2)C(=O)O1 (stereo not shown) [B367] | 5 µM (≈ 1.93 µg/mL) | 150 µM (≈ 58 µg/mL) | 150 µM (≈ 58 µg/mL) | > 150 µM |  |  |
| CCN1CC(COc2ccccc2CNCCC2=CCCCC2)OC1=O (stereo not shown) [B368] | 20 µM (≈ 7.17 µg/mL) | > 150 µM | > 150 µM | > 150 µM |  |  |

Reference: patent US11261201B2 (priority 2018, dated 2022)
